# From US12391679B2, “Benzamide-substituted bicyclic imidazo- and pyrazolo-fused -pyridine, -pyrimide, and -pyridazine compounds for treatment of inflammatory diseases” (ONCO3R Therapeutics BV, priority 2019, dated 2025)
# System: mouse CIA model
# Experiment: Collagen induced arthritis (CIA) model
# Type: in vivo
# Conditions: 3 mg/kg p.o. b.i.d.
# Description: Completed Freund's adjuvant (CFA) and incomplete Freund's adjuvant (IFA) were purchased from Difco. Bovine collagen type II (CII), lipopolysaccharide (LPS), and Enbrel® (etanercept) were obtained from Chondrex (L'Isle d'Abeau, France); Sigma (P4252, L'Isle d'Abeau, France), Wyeth (25 mg injectable syringe, France), respectively. All other reagents used were of reagent grade and all solvents were of analytical grade.
# DBA1/J mice (male, 7-8 weeks old) were obtained from Charles River Laboratories (Écully, France). Mice were kept on a 12 h light/dark cycle. Temperature was maintained at 22° C., and food and water were provided ad libitum.
# One day before the experiment, CII solution (2 mg/mL) was prepared with 0.05 M AcOH and stored at 4° C. Just before the immunization, equal volumes of adjuvant (IFA) and CII were mixed by a homogenizer in a pre-cooled glass bottle in an ice water bath. Extra adjuvant and prolonged homogenization may be required if an emulsion is not formed. 0.2 mL of the emulsion was injected intradermally at the base of the tail of each mouse on day 1, a second booster intradermal injection (CII solution at 2 mg/mL in […] 0.1 mL saline) was performed on […]. This immunization method was modified from published methods (Jou et al. 2005; Sims et al. 2004).
# The therapeutic effects of the compounds were tested in the mouse CIA model. Mice were randomly divided into equal groups and each group contained 10 mice. All mice were immunized on day 1 and boosted on day 21. The negative control group was treated with vehicle (MC 0.5%) and the positive control group with Enbrel® (10 mg/kg, 3× week, sc). A compound of interest was typically tested at 3 doses per os (p.o.). At day 32, randomization between groups was performed with respect with clinical score and animals were therapeutically treated regarding their group until day 47. Body weight and clinical score, were recorded at least twice a week.
# Arthritis is scored according to the method of Khachigian 2006, Lin et al 2007 and Nishida et al. 2004 (Khachigian 2006; Lin et al. 2007; Nishida et al. 2004). […]
row,Structure (SMILES),clinical score compared to the vehicle group
1,"COc1cc(-c2cnn3cc(C(C)(C)C#N)ccc23)cc(OC(F)F)c1C(=O)N[C@@H]1C[C@@H]1F [Cpd 219, 4-[6-(1-cyano-1-methyl-ethyl)pyrazolo[1,5-a]pyridin-3-yl]-2-(difluoromethoxy)-N-[(1R,2S)-2-fluorocyclopropyl]-6-methoxy-benzamide]",statistically significant decrease

# Same assay, conditions: 30 mg/kg p.o. b.i.d.
row,Structure (SMILES),clinical score compared to the vehicle group
1,"COc1cc(-c2cnn3cc(C4(N)CCC4)ccc23)cc(OC(F)F)c1C(=O)N[C@@H]1C[C@@H]1F [Cpd 261, 4-[6-(1-aminocyclobutyl)pyrazolo[1,5-a]pyridin-3-yl]-2-(difluoromethoxy)-N-[(1R,2S)-2-fluorocyclopropyl]-6-methoxy-benzamide]",statistically significant decrease

# Same assay, conditions: 60 mg/kg p.o. b.i.d.
row,Structure (SMILES),clinical score compared to the vehicle group
1,"COc1cc(-c2cnc3cc(C4COC4)ccn23)cc(OC(F)F)c1C(=O)NC1CC1 [Cpd 174, N-cyclopropyl-2-(difluoromethoxy)-6-methoxy-4-[7-(oxetan-3-yl)imidazo[1,2-a]pyridin-3-yl]benzamide]",statistically significant decrease

# System: LPS triggered IL-10 secretion in monocyte-derived macrophages
# Experiment: MdM assay: LPS-triggered IL-10 (ELISA)
# Type: cell-based
# Conditions: Macrophage; human MdM; LPS 200 ng/mL; supernatant after 2 h; maximal fold change vs LPS only, median of two or more assays; read-out: IL-10 FCmax median
# Description: SIK inhibition inhibits TNFα and increases IL-10 release in LPS triggered monocyte-derived macrophages (MdM) and dendritic cells (MdDCs) (Clark et al. 2012; Sundberg et al. 2014; Ozanne et al. 2015). This assay evaluates illustrative compounds of the invention for their inhibition of LPS-induced TNFα and LPS triggered IL-10 secretion in monocyte-derived macrophages.
# PBMCs are isolated from human blood samples (buffycoats). The buffy coat is aseptically transferred into a 50 mL Falcon tube, and diluted 1/2 in PBS. Falcon tubes are filled with 20 mL Lymphoprep™, on top of which 25 mL of the buffy coat is carefully added, tubes are centrifuged for 35 min at 400 g in temperature controlled centrifuge, without brake, at 25° C. PBMCs are aspirated from the white interface layer between sample and Lymphoprep™. PBMCs are washed five times in PBS. Cells are resuspended in RPMI 1640 complete medium supplemented with 10% FBS, 1% P/S, and cell density is determined using a hematologic analyzer (Sysmex XS-500i).
# PBMCs are centrifuged at 300×g for 10 min and resuspended at a density of 1.0*10^7 cells/80 μL Miltenyi buffer (PBS, pH 7.4, 1% FBS, 2 mM EDTA).
# Starting from this point of the protocol all steps are performed on ice. 20 μL of CD14+ micro-beads are added per 1.0*10^7 cells, the tube is mixed and incubated for 15 min in the fridge at 4° C. Cell suspension volume is adjusted to total volume of 100 mL using Miltenyi buffer, mixed gently and subsequently centrifuged for 10 min at 300×g. Supernatant is discarded and cell pellet is resuspended in 12 mL of Miltenyi buffer.
# Four LS columns are placed in the MACS Separator (magnet) from Miltenyi Biotec, and are prewet by rinsing with 3 mL of MACS buffer per column. Three mL of cell suspension is added onto the column (max 1*10^8 of labelled cells/column), and columns are subsequently washed 3 times with 3 mL of Miltenyi buffer.
# The columns are removed from the magnets, and 5 mL of Miltenyi buffer are added to the column to flush out the CD14+ fraction by pushing the plunger into the column. The flushed fractions are collected in a fresh 50 mL Falcon and volume is adjusted to 30 mL using Miltenyi buffer, cells are centrifuged for 10 min at 300×g. The obtained cell pellet is resuspended in 10 mL RPMI w/o FBS, and cell density is determined using a hematologic analyser (Sysmex XS-500i). 100 000 cells are seeded per well of a 96-well plate for differentiation to MdM in RPMI 1640 medium supplemented with 10% FBS, 1% P/S and 100 ng/mL rhM-CSF. On day 5 the medium is refreshed with 100 μL RPMI 1640 medium supplemented with 10% FBS, 1% P/S and 100 ng/mL rhM-CSF.
# On day 10, MdMs are triggered and compound is added.
# A compound dilution plate is made in 100% DMSO by 3-fold dilution of 10 mM stock solution. An intermediate dilution plate (10× final concentration) is made by diluting the compound dilution plate 50-fold in RPMI medium.
# Medium is carefully removed from cell plates using multichannel pipette, and replaced by 80 μL fresh medium. 10 μL of the 10× final concentration compound is added to the cells and incubated for 1 hour at 37° C. before addition of trigger. No trigger conditions/trigger conditions are spiked with equal final DMSO concentrations of 0.2% DMSO. 10 μL of 10×LPS (final conc. 200 ng/mL) solution are added to all wells except for the ‘no trigger wells’ where 10 μL medium is added. Supernatant is collected after 2 h (IL-10 determination) and after 20 h (TNFα determination) of LPS triggering. […]
row,Structure (SMILES),maximal fold induction
1,"COc1cc(-c2cnc3cc(C(C)(C)C#N)ccn23)cc(OC(F)F)c1C(=O)NC1CC1 [Cpd 19, 4-[7-(1-cyano-1-methyl-ethyl)imidazo[1,2-a]pyridin-3-yl]-N-cyclopropyl-2-(difluoromethoxy)-6-methoxy-benzamide]",< 1.5
2,"COc1cc(-c2cnn3cc(C(C)(C)C#N)ccc23)cc(OC(F)F)c1C(=O)NC1CC1 [Cpd 208, 4-[6-(1-cyano-1-methyl-ethyl)pyrazolo[1,5-a]pyridin-3-yl]-N-cyclopropyl-2-(difluoromethoxy)-6-methoxy-benzamide]",< 1.5
3,"COc1cc(-c2cnn3cc(C(C)(C)O)ccc23)cc(OC(F)F)c1C(=O)N[C@@H]1C[C@@H]1F [Cpd 227, 2-(difluoromethoxy)-N-[(1R,2S)-2-fluorocyclopropyl]-4-[6-(1-hydroxy-1-methyl-ethyl)pyrazolo[1,5-a]pyridin-3-yl]-6-methoxy-benzamide]",1.5 to 4.5
4,"COc1cc(-c2cnc3cc(C(C)(C)C#N)cnn23)cc(OC(F)F)c1C(=O)N[C@@H]1C[C@@H]1F [Cpd 228, 4-[7-(1-cyano-1-methyl-ethyl)imidazo[1,2-b]pyridazin-3-yl]-2-(difluoromethoxy)-N-[(1R,2S)-2-fluorocyclopropyl]-6-methoxy-benzamide]",< 1.5
5,"COc1cc(-c2cnn3cc(C(C)(C)C#N)cnc23)cc(OC(F)F)c1C(=O)N[C@@H]1C[C@@H]1F [Cpd 231, 4-[6-(1-cyano-1-methyl-ethyl)pyrazolo[1,5-a]pyrimidin-3-yl]-2-(difluoromethoxy)-N-[(1R,2S)-2-fluorocyclopropyl]-6-methoxy-benzamide]",1.5 to 4.5
6,"COc1cc(-c2cnn3cc(C(C)(C)CO)ccc23)cc(OC(F)F)c1C(=O)N[C@@H]1C[C@@H]1F [Cpd 242, 2-(difluoromethoxy)-N-[(1R,2S)-2-fluorocyclopropyl]-4-[6-(2-hydroxy-1,1-dimethyl-ethyl)pyrazolo[1,5-a]pyridin-3-yl]-6-methoxy-benzamide]",< 1.5
7,"COc1cc(-c2cnn3cc(C4(C#N)CCOCC4)ccc23)cc(OC(F)F)c1C(=O)N[C@@H]1C[C@@H]1F [Cpd 243, 4-[6-(4-cyanotetrahydropyran-4-yl)pyrazolo[1,5-a]pyridin-3-yl]-2-(difluoromethoxy)-N-[(1R,2S)-2-fluorocyclopropyl]-6-methoxy-benzamide]",< 1.5
8,"COc1cc(-c2cnn3cc(C(C)(C)C#N)ccc23)cc(OC)c1C(=O)N[C@@H]1C[C@@H]1F [Cpd 245, 4-[6-(1-cyano-1-methyl-ethyl)pyrazolo[1,5-a]pyridin-3-yl]-N-[(1R,2S)-2-fluorocyclopropyl]-2,6-dimethoxy-benzamide]",< 1.5
9,"COc1cc(-c2cnn3cc(C4(C(N)=O)CCC4)ccc23)cc(OC(F)F)c1C(=O)N[C@@H]1C[C@@H]1F [Cpd 254, 4-[6-(1-carbamoylcyclobutyl)pyrazolo[1,5-a]pyridin-3-yl]-2-(difluoromethoxy)-N-[(1R,2S)-2-fluorocyclopropyl]-6-methoxy-benzamide]",< 1.5
10,"COc1cc(-c2cnn3cc(C(C)(C)N)ccc23)cc(OC(F)F)c1C(=O)N[C@@H]1C[C@@H]1F [Cpd 256, 4-[6-(1-amino-1-methyl-ethyl)pyrazolo[1,5-a]pyridin-3-yl]-2-(difluoromethoxy)-N-[(1R,2S)-2-fluorocyclopropyl]-6-methoxy-benzamide]",1.5 to 4.5
11,"COc1cc(-c2cnn3cc(C4(N)CCC4)ccc23)cc(OC(F)F)c1C(=O)N[C@@H]1C[C@@H]1F [Cpd 261, 4-[6-(1-aminocyclobutyl)pyrazolo[1,5-a]pyridin-3-yl]-2-(difluoromethoxy)-N-[(1R,2S)-2-fluorocyclopropyl]-6-methoxy-benzamide]",< 1.5
